According to patent US20120108492A1, “LIGAND-SPECIFIC NON-ANTIBODY COMPOUNDS THAT INHIBIT CR2 ACTIVATION AND METHODS OF USE THEREOF” (The Regents of the University of Colorado, priority 2008, published 2012):
Where a SMILES comes first, the peptide text is derived from it. Bridges are numbered along the chain shown (N, C = ends). Where no end group is shown, it is not given here.

biological target: T1, CR2-C3d interaction (Homo sapiens, UniProt P20023); experiment: Peptide competition ELISA, CR2-C3d (bound C3d, solution phase MBP-CR2); assay type: binding; conditions: not given
T1 construct: DNA corresponding to residues 1-133 of wild-type CR2 (SCR1-2) was PCR amplified; made in house; host or cells: E. coli (pMAL-P2X)
T1 sequence (P20023 21-153): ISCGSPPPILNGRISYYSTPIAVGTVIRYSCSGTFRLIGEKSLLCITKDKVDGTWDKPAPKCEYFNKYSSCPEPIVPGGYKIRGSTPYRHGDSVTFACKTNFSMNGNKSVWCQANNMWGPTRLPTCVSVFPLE

| Compound | IC50 [µM] |
| --- | --- |
| APAHLSSQ [control] | 700 |
| APQALSSQYSRT [C3dp1.1] | 70 |
| APQHLSSQ [C3dp1.3] | 40 |
| APQHLSSQYSRT [C3dp1] | 100 |
| DPKNHVH [C3dcp1.1, DPKNHVH] | 95 |
| IATANPRHHSTA [C3dp2.3] | 160 |
| ISTSNPRAASTA [C3dp2.1] | 150 |
| ISTSNPRH [C3dp2.2] | 190 |
| ISTSNPRHHSTA [C3dp2] | 450 |
| TRSYQSSLHQPA [C3dp1.2] | 70 |

same assay, conditions: peptide raised against CR2-EBV gp350

| Compound | effect on the CR2-C3d interaction (ligand specificity) |
| --- | --- |
| CC(C)C[C@@H]1NC(=O)[C@H](CO)NC(=O)CNC(=O)[C@H](CCC(=O)O)NC(=O)[C@H](CO)NC(=O)[C@@H](N)CSSC[C@@H](C(=O)O)NC(=O)CNC(=O)[C@H](CCCCN)NC1=O [gp350cp1] (H-CSEGSLKGC-OH; disulfide 1-9; N-terminus and C-terminus assumed) | unaffected |

biological target: T2, CR2-EBV gp350 interaction (Homo sapiens, UniProt P20023); experiment: not given; conditions: peptides raised against CR2-C3d

| Compound | effect on the CR2-EBV gp350 interaction (ligand specificity) |
| --- | --- |
| APQHLSSQYSRT [C3dp1] | largely unaffected |

biological target: T2, CR2-EBV gp350 interaction; experiment: biochemical; conditions: not given

| Compound | IC50 [µM] |
| --- | --- |
| CC(C)C[C@@H]1NC(=O)[C@H](CO)NC(=O)CNC(=O)[C@H](CCC(=O)O)NC(=O)[C@H](CO)NC(=O)[C@@H](N)CSSC[C@@H](C(=O)O)NC(=O)CNC(=O)[C@H](CCCCN)NC1=O [gp350cp1] (H-CSEGSLKGC-OH; disulfide 1-9; N-terminus and C-terminus assumed) | 150 |
